Test results: patent US9718782B2, “TrkA kinase inhibitors, compositions and methods thereof” (MERCK SHARP & DOHME CORP, priority 2013, dated 2017)

Target: T1, TrkA receptor (Homo sapiens, UniProt P04629)
T1 construct: host or cells: U2OS (PathHunter, 'TrkA p75' cells)
Assay: DiscoverX PathHunter TrkA functional assay (NGF-stimulated U2OS cells)
Format: cell-based
Conditions: U2OS cells expressing TrkA-Prolink fusion and Shc1-EA; compound 1 hour, then EC80 NGF 3 hours; luminescence
Protocol: TrkA functional activity was measured using a DiscoverX PathHunter assay. In this assay, U2OS cells are express TrkA receptor as a fusion with the weakly complementing fragment of B-galactosidase, which DiscoverX calls “Prolink (PK)”; additionally, Shcl is fused with a larger fragment, which is called “Enzyme Acceptor (EA)”. Activation of the TrkA receptor, upon NGF addition, results in the kinase domain being phosphorylated, resulting in subsequent recruitment of Shcl-EA protein. That recruitment results in an active B-galactosidase enzyme that is detected by addition of a chemiluminescent substrate.
All reagents were purchased from DiscoverX, except for the receptor agonists (NGF, BDNF, NT3) which were purchased from Peprotech. Cells were expanded and frozen into cryovials (TrkA p75 @passage 13, 1.5×10^7 cells/vial; TrkC p75 @passage 11, 1.5×10^7 cells/vial in InVitrogen Recovery Cell Freezing media), and stored in the vapor phase of liquid nitrogen, and thawed immediately before use. Thawed cells were added to a 384-well plate (BD Falcon 384-well white/clear, TC surface 120 uL assay plates (353963), 20 uL of 0.375e6 cells/mL=>7500 cells/well), and allowed to incubate overnight. Compound (10 mM starting dose: 202.5 nL compound yielding 0.81% DMSO final in total assay volume and starting doses 81 uM) was added the following morning and allowed to incubate on cells for 1 hour. Then, 5 uL EC80 of agonist (NGF for TrkA; BDNF for TrkB; NT3 for TrkC) was added and allowed to incubate for 3 hours at room temperature. DiscoverX PathHunter detection reagent is added (12 uL to plate and components diluted in parts as per kit instructions) and the plate is further incubated for 1 hour in the dark. The plate is read via luminescence on the Perkin Elmer Envision.

T1 sequence (P04629 33-796): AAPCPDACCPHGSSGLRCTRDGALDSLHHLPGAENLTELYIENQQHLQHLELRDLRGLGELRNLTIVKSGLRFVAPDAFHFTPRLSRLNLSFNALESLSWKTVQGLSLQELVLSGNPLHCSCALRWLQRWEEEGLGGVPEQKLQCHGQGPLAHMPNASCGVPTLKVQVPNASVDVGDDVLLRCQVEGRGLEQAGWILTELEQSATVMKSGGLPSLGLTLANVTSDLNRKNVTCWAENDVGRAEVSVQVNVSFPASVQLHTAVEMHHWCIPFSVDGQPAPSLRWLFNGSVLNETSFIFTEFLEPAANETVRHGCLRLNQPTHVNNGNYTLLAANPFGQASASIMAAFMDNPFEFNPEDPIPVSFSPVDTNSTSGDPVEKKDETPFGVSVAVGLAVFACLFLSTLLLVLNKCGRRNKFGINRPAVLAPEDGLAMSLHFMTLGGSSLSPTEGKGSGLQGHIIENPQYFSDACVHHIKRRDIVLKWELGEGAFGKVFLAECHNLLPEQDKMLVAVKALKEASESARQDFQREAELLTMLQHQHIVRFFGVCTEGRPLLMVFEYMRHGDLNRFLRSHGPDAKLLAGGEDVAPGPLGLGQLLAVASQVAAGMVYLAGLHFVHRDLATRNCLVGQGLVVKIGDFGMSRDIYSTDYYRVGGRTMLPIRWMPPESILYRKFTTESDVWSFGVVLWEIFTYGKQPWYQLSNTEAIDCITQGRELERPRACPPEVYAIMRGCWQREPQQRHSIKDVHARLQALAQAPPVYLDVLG

Structure (SMILES)	IC50
Cn1ccnc1-c1cc(NC(=O)NC2c3ccccc3-c3ccccc32)n(C)n1 [Compound 85, 1-(9H-fluoren-9-yl)-3-[1-methyl-3-(1-methyl-1H-imidazol-2-yl)-1H-pyrazol-5-yl]urea]	0.1 µM
Cc1nnc(-c2cccc(NC(=O)NC3c4ccccc4-c4ccccc43)c2)n1C [Compound 86, 1-[3-(4,5-dimethyl-4H-1,2,4-triazol-3-yl)phenyl]-3-(9H-fluoren-9-yl)urea]	0.25 µM
